Test results published in patent US9518018B2, “3-alkoxy, thioalkyl and amino-4-amino-6-(substituted)picolinates and their use as herbicides” (Dow AgroSciences LLC, priority 2011, dated 2016).

Experiments:
[1] = test system: CYPES: yellow nutsedge (Cyperus esculentus); test: Post-Emergent Test I herbicidal activity; format: in vivo; conditions: post-emergence, 336 h, Table 3, 140 g ai/ha, read-out: Visual Growth Reduction (%)-14 Days after Application CYPES
Outline: (§1)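 Greenhouse-grown seedlings (peat-based mix, pH 6.0–6.8; ~15 h photoperiod, 23–29 °C day) were sprayed post-emergence at first/second true-leaf stage with compound in acetone/DMSO/aqueous crop-oil–surfactant carrier at 187 L/ha, using a twofold rate series. Injury was scored visually after 14 d (0–100%); GR20/GR50/GR80 derived by probit analysis.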

[2] = test system: CHEAL: lambsquarters (Chenopodium album); test: Post-Emergent Test I herbicidal activity; format: in vivo; conditions: Chenopodium album, post-emergence, 336 h, Table 3, 140 g ai/ha, read-out: Visual Growth Reduction (%)-14 Days after Application CHEAL
Outline: as §1

[3] = test system: ABUTH: velvetleaf (Abutilon theophrasti); test: Post-Emergent Test I herbicidal activity; format: in vivo; conditions: Abutilon theophrasti, post-emergence, 336 h, Table 3, 140 g ai/ha, read-out: Visual Growth Reduction (%)-14 Days after Application ABUTH
Outline: as §1

[4] = test system: ORYSA: rice (Oryza sativa); test: Post-Emergent Test I herbicidal activity; format: in vivo; conditions: post-emergence, 336 h, Table 3, 140 g ai/ha, read-out: Visual Growth Reduction (%)-14 Days after Application ORYSA
Outline: (§2)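 Post-emergence foliar application to young greenhouse plants at 187 L/ha, five rates down to 1/16× of the top rate. Percent injury is assessed visually two weeks later against untreated plants.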

[5] = test system: EPHHL: wild poinsettia (Euphorbia heterophylla); test: Post-Emergent Test I herbicidal activity; format: in vivo; conditions: post-emergence, 336 h, Table 3, 140 g ai/ha, read-out: Visual Growth Reduction (%)-14 Days after Application EPHHL
Outline: as §1

ZEAMX: corn (Zea mays) = test: Post-Emergent Test I herbicidal activity; format: in vivo; conditions: Zea mays, post-emergence, 336 h, Table 3, 140 g ai/ha, read-out: Visual Growth Reduction (%)-14 Days after Application ZEAMX
Outline: as §1

[6] = test system: ECHCG: barnyardgrass (Echinochloa crus-galli); test: Post-Emergent Test I herbicidal activity; format: in vivo; conditions: post-emergence, 336 h, Table 3, 140 g ai/ha, read-out: Visual Growth Reduction (%)-14 Days after Application ECHCG
Outline: as §2

Compound `COC(=O)c1nc(-c2ccc(Cl)c(F)c2)c(F)c(N)c1SC` [Compound 93, Methyl 4-amino-6-(4-chloro-3-fluorophenyl)-5-fluoro-3-(methylthio)picolinate] has a pest or weed control at 140 g/ha [1] of 0%, a pest or weed control at 140 g/ha [2] of 90% and a pest or weed control at 140 g/ha [3] of 30%. It also gave a pest or weed control at 140 g/ha [4] of 0%, a pest or weed control at 140 g/ha [5] of 50% and a pest or weed control at 140 g/ha (ZEAMX: corn (Zea mays)) of 0%. For the same compound, the pest or weed control at 140 g/ha [6] was 0% and the melting point was 125 to 126 °C.
`COC(=O)c1nc(-c2ccc(Cl)c(OC)c2F)c(F)c(N)c1SC` [Compound 94, Methyl 4-amino-6-(4-chloro-2-fluoro-3-methoxyphenyl)-5-fluoro-3-(methylthio)picolinate] showed a pest or weed control at 140 g/ha [1] of 0%, a pest or weed control at 140 g/ha [2] of 85% and a pest or weed control at 140 g/ha [3] of 60%. For the same compound, the pest or weed control at 140 g/ha [4] was 0%, the pest or weed control at 140 g/ha [5] was 65% and the pest or weed control at 140 g/ha (ZEAMX: corn (Zea mays)) was 0%. The pest or weed control at 140 g/ha [6] was 0% and the melting point was 113 to 117 °C.
